35 compounds from patent US11319306B2, “Compositions and methods for treating neurodegenerative diseases” (Azevan Pharmaceuticals, Inc., priority 2014, dated 2022) can be followed below.

This test concerns the target T1, human V1a receptor (Homo sapiens, UniProt P37288).
T1 construct: host or cells: CHO cells (hV1a cell line)
Briefly: Human vasopressin V1a receptor binding assay (3H-AVP competition, hV1a CHO cells). The conditions noted are these: 3H-AVP competition, CHO cells expressing human V1a; for IC50: read-out: V1a Binding Affinity IC50; for Ki: read-out: V1a Ki. As to the method: Human vasopression V1a receptor binding assay. A cell line expressing the human V1a receptor in CHO cells (henceforth referred to as the hV1a cell line) was obtained from Dr. Michael Brownstein, NIMH, Bethesda, Md., USA. The hV1a cDNA sequence is described by Thibonnier et al., Journal of Biological Chemistry, 269, 3304-3310 (1994), and the expression method was the same as described by Morel et al. (1992). The hV1a cell line was grown in alpha-MEM with 10% fetal bovine serum and 250 ug/ml G418 (Gibco, Grand Island, N.Y., USA). For competitive binding assay, hV1a cells were plated into 6-well culture plate at 1:10 dilution from a confluency flask, and maintained in culture for at least two days. Culture medium was then removed, cells were washed with 2 ml binding buffer (25 mM Hepes, 0.25% BSA, 1×DMEM, PH=7.0). To each well, 990 μl binding buffer containing InM 3H-AVP was added, and followed by 10 μl series diluted Example compounds dissolved in DMSO. […] 100 nM cold AVP (Sigma) was used to assess non-specific binding. Cells were incubated for 45 minutes at 37° C., assay mixture was removed and each well was washed three times with PBS (pH=7.4). 1 ml 2% SDS was added per well and plates were let sit for 30 minutes. The whole content in a well was transferred to a scintillation vial. Each well was rinsed with 0.5 ml PBS which was then added to the corresponding vial. Scintillation fluid (Ecoscint, National Diagnostics, Atlanta, Ga.) was then added at 3 ml per vial. Samples were counted in a liquid scintillation counter (Beckman LS3801). IC50 values were calculated by Prism Curve fitting software.
All of the alkanedioic esters and amides exemplified in the foregoing examples dissolved in DMSO were tested in this assay. Binding curves were generated according to methods described by Thibonnier et al. (1994). [^3H]-AVP was added to the hV1a cell cultures followed by 10-fold dilutions of each test compound.

T1 sequence (P37288 whole entry): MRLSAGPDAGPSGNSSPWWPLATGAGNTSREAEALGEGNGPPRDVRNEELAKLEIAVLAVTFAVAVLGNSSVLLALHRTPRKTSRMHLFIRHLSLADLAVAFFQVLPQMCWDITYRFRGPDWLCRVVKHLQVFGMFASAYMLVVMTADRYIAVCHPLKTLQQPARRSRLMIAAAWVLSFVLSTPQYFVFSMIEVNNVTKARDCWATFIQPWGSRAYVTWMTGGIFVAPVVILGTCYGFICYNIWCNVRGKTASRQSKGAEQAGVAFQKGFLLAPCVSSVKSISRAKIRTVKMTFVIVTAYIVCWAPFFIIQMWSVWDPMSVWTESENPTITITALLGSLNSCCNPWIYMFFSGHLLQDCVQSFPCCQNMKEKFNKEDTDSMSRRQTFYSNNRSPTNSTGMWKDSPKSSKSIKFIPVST

As for `CC(C)(NC(=O)C(CC(=O)N1CCC(N2CCCCC2)CC1)N1C(=O)C(N2C(=O)OCC2c2ccccc2)C1C=Cc1ccccc1)c1ccccc1` (centres unmarked) [Example 134J], the IC50 (in general, the concentration that gives 50% inhibition) is 5.29 nM; the inhibition constant (Ki) (in general, the dissociation constant of the complex between target and ligand, obtained from inhibition or displacement) turned out to be 3.25 nM.

As for `N#Cc1cccc(/C=C/[C@@H]2[C@H](N3C(=O)OC[C@@H]3c3ccccc3)C(=O)N2[C@@H](CCC(=O)N2CCN(C3CCCCC3)CC2)C(=O)N[C@@H]2CCCc3ccccc32)c1` [Example 248], the IC50 is 5.3 nM and the Ki was determined as 3.3 nM.

For `O=C(NCc1cccc(C(F)(F)F)c1)C(C(=O)N1CCC(CCN2CCCCC2)CC1)N1C(=O)C(N2C(=O)OCC2c2ccccc2)C1C=Cc1ccccc1` (centres unmarked) [Example 42A], the IC50 came out at 1.77 nM and the Ki worked out at 1.17 nM.

As for `O=C(CC(C(=O)NCc1cccc(C(F)(F)F)c1)N1C(=O)C(N2C(=O)OCC2c2ccccc2)C1C=Cc1ccccc1)NC1CCN(Cc2ccccc2)C1` (centres unmarked) [Example 85], the IC50 came out at 5.87 nM and the inhibition constant (Ki) is 3.6 nM.

As to `O=C(NCc1cccc(C(F)(F)F)c1)C(C(=O)N1CCN(CCc2ccccc2)CC1)N1C(=O)[C@@H](N2C(=O)OC[C@@H]2c2ccccc2)[C@H]1/C=C/c1ccccc1` (mixture of isomers) [Example 38], the inhibition constant Ki stood at 85 nM.

Turning to `O=C(NC1(c2ccccc2F)CCCC1)C(CCC(=O)N1CCN(C2CCCCC2)CC1)N1C(=O)C(N2C(=O)OCC2c2ccccc2)C1C=Cc1ccccc1` (centres unmarked) [Example 221H], the half-inhibitory concentration (IC50) was 4 nM and the Ki is 2.5 nM.

As for `CCCCN1CCN(C(=O)CCC(C(=O)NCc2cccc(C(F)(F)F)c2)N2C(=O)C(N3C(=O)OCC3c3ccccc3)C2C=Cc2ccccc2)CC1` (centres unmarked) [Example 137], the half-maximal inhibitory concentration (IC50) worked out at 17 nM and the inhibition constant Ki was 10.5 nM.

As for `CC(NC(=O)C(CC(=O)N1CCC(CN2CCCCC2)CC1)N1C(=O)C(N2C(=O)OCC2c2ccccc2)C1C=Cc1ccccc1)c1ccccc1` (centres unmarked) [Example 601], the IC50 came out at 1 nM and the inhibition constant (Ki) was 0.62 nM.

Regarding `CC(C)N1CCN(C(=O)CCC(C(=O)NCc2cccc(C(F)(F)F)c2)N2C(=O)C(N3C(=O)OCC3c3ccccc3)C2C=Cc2ccccc2)CC1` (centres unmarked) [Example 138], the IC50 is 21 nM and the inhibition constant Ki was found to be 13 nM.

With `O=C(NC(c1ccccc1)C(F)(F)F)C(CC(=O)N1CCC(N2CCCCC2)CC1)N1C(=O)C(N2C(=O)OCC2c2ccccc2)C1C=Cc1ccccc1` (single isomer, unassigned) [Example 623], the Ki amounted to 0.85 nM.

For `O=C(NCc1cccc(C(F)(F)F)c1)[C@H](CCC(=O)N1CCN(N2CCCC2)CC1)N1C(=O)[C@@H](N2C(=O)OC[C@@H]2c2ccccc2)[C@H]1/C=C/c1ccccc1` [Example 91], the IC50 was 3.24 nM and the inhibition constant (Ki) is 1.99 nM.

As to `O=C(CC(C(=O)NCc1cccc(C(F)(F)F)c1)N1C(=O)C(N2C(=O)OCC2c2ccccc2)C1C=Cc1ccccc1)NC1CCN(Cc2ccccc2)CC1` (centres unmarked) [Example 63], the IC50 worked out at 1.84 nM and the inhibition constant (Ki) stood at 1.13 nM.

Take `CCN1CCC[C@H]1CNC(=O)CC[C@@H](C(=O)N[C@@H]1CCCc2ccccc21)N1C(=O)[C@@H](N2C(=O)OC[C@@H]2c2ccccc2)[C@H]1/C=C/c1ccccc1` [Example 221AI]: the half-maximal inhibitory concentration (IC50) was about 50 nM.

For the compound `CCCCN1CCN(C(=O)C(C(=O)NCc2cccc(C(F)(F)F)c2)N2C(=O)C(N3C(=O)OCC3c3ccccc3)C2C=Cc2ccccc2)CC1` (centres unmarked) [Example 40], the IC50 was 11 nM and the inhibition constant Ki amounted to 6.5 nM.

Take `O=C(NCc1cccc(C(F)(F)F)c1)C(CCC(=O)N1CCN(Cc2ccccc2)CC1)N1C(=O)C(N2C(=O)OCC2c2ccccc2)C1C=Cc1ccccc1` (centres unmarked) [Example 95]: the IC50 is 1.76 nM and the Ki worked out at 1.08 nM.

As to `O=C(NCc1cccc(C(F)(F)F)c1)C(CCC(=O)N1CCN(CCN2CCOCC2)CC1)N1C(=O)C(N2C(=O)OCC2c2ccccc2)C1C=Cc1ccccc1` (centres unmarked) [Example 112], the IC50 is 1.34 nM and the Ki was 0.8 nM.

Regarding “(2S)-[(4-cyclohexylpiperazinyl)carbonylethyl]-2-[3(S)-(4(S)-phenyloxazolidin-2-on-3-yl)-4(R)-(2-phenyleth-1-yl)azetidin-2-on-1-yl]acetic acid N—[(R)-1,2,3,4-tetrahydronaphth-1-yl]amide [Example 236A]”, the IC50 stood at 9 nM and the Ki was determined as 5.5 nM.

As for `O=C(NC1(c2ccc(F)cc2)CCCC1)C(CCC(=O)N1CCN(C2CCCCC2)CC1)N1C(=O)C(N2C(=O)OCC2c2ccccc2)C1C=Cc1ccccc1` (centres unmarked) [Example 221I], the concentration for half-maximal inhibition (IC50) was found to be 12 nM and the Ki came out at 7.4 nM.

In the case of `O=C(NCc1cccc(C(F)(F)F)c1)[C@@H](CC(=O)N1CCN(N2CCCC2)CC1)N1C(=O)[C@@H](N2C(=O)OC[C@@H]2c2ccccc2)[C@H]1/C=C/c1ccccc1` [Example 134B], the 50% inhibitory concentration (IC50) was 44.8 nM and the Ki is 27.5 nM.

As to `O=C(NCc1ccccc1F)C(CC(=O)N1CCC(N2CCCCC2)CC1)N1C(=O)C(N2C(=O)OCC2c2ccccc2)C1C=Cc1ccccc1` (centres unmarked) [Example 677], the inhibition constant (Ki) came out at 3 nM.

With `O=C(NCc1cccc(C(F)(F)F)c1)C(CC(=O)N1CCC(CCN2CCCCC2)CC1)N1C(=O)C(N2C(=O)OCC2c2ccccc2)C1C=Cc1ccccc1` (centres unmarked) [Example 134A], the IC50 worked out at 12.9 nM and the Ki is 7.9 nM.

`O=C(NCc1cccc(C(F)(F)F)c1)C(CC(=O)N1CCC(CN2CCCCC2)CC1)N1C(=O)C(N2C(=O)OCC2c2ccccc2)C1C=Cc1ccccc1` (centres unmarked) [Example 134G]: the half-inhibitory concentration (IC50) came out at 6 nM and the Ki came out at 3.7 nM.

Consider `O=C([C@@H](COCc1ccccc1)N1C(=O)[C@@H](N2C(=O)OC[C@@H]2c2ccccc2)[C@H]1/C=C/c1ccccc1)N1CCC(CN2CCCCC2)CC1` [Example 232E], for which the half-inhibitory concentration (IC50) stood at 0.28 nM and the Ki worked out at 0.17 nM.

Turning to `Cc1cccc(CN(C)C(=O)C(CCC(=O)N2CCN(C3CCCCC3)CC2)N2C(=O)C(N3C(=O)OCC3c3ccccc3)C2C=Cc2ccccc2)c1` (centres unmarked) [Example 221A], the 50% inhibitory concentration (IC50) amounted to 2.71 nM and the inhibitory constant (Ki) is 1.66 nM.

Consider `O=C(C(COCc1ccccc1)N1C(=O)C(N2C(=O)OCC2c2ccccc2)C1C=Cc1ccccc1)N1CCC(N2CCCCC2)CC1` (centres unmarked) [Example 232], for which the IC50 was found to be 1.37 nM and the Ki stood at 0.84 nM.

With `O=C(NCc1cc(F)cc(F)c1)[C@H](CCC(=O)N1CCN(C2CCCCC2)CC1)N1C(=O)[C@@H](N2C(=O)OC[C@@H]2c2ccccc2)[C@H]1/C=C/c1ccccc1` [Example 185], the inhibitory constant (Ki) worked out at 0.82 nM.

Regarding `O=C(NCc1cccc(C(F)(F)F)c1)C(CCC(=O)N1CCC(CCN2CCCCC2)CC1)N1C(=O)C(N2C(=O)OCC2c2ccccc2)C1C=Cc1ccccc1` (centres unmarked) [Example 120A], the IC50 is 16.2 nM and the inhibitory constant (Ki) worked out at 9.9 nM.

For `O=C(N[C@@H]1CCCc2ccccc21)[C@H](CCC(=O)N1CCN(C2CCCCC2)CC1)N1C(=O)[C@@H](N2C(=O)OC[C@@H]2c2ccccc2)[C@H]1/C=C/c1cccc(Cl)c1` [Example 243], the IC50 turned out to be 0.5 nM and the inhibition constant (Ki) was found to be 0.3 nM.

For `O=C(N[C@@H]1CCCc2ccccc21)[C@H](CCC(=O)N1CCN(C2CCCCC2)CC1)N1C(=O)[C@@H](N2C(=O)OC[C@@H]2c2ccccc2)[C@H]1/C=C/c1cccc([N+](=O)[O-])c1` [Example 249], the IC50 is 1.7 nM and the inhibition constant (Ki) was found to be 1 nM.

Take `O=C(N[C@@H]1CCCc2ccccc21)[C@H](CCC(=O)N1CCN(C2CCCCC2)CC1)N1C(=O)[C@@H](N2C(=O)OC[C@@H]2c2ccccc2)[C@H]1/C=C/c1cccc(C(F)(F)F)c1` [Example 246]: the IC50 stood at 2.1 nM and the Ki is 1.3 nM.

`CC(NC(=O)C(CC(=O)N1CCC(N2CCCCC2)CC1)N1C(=O)C(N2C(=O)OCC2c2ccccc2)C1C=Cc1cccc(Br)c1)c1ccccc1` (centres unmarked) [Example 606]: the 50% inhibitory concentration (IC50) came to 0.53 nM and the Ki was determined as 0.32 nM.

Consider `O=C(NCc1cccc(C(F)(F)F)c1)C(CCC(=O)N1CCN(C2CCCCC2)CC1)N1C(=O)C(N2C(=O)OCC2c2ccccc2)C1C(Cl)=Cc1ccccc1` (centres unmarked) [Example 226], for which the IC50 was 0.49 nM and the inhibitory constant (Ki) was 0.3 nM.

Consider `CN(Cc1cccc(Cl)c1)C(=O)C(CCC(=O)N1CCN(C2CCCCC2)CC1)N1C(=O)C(N2C(=O)OCC2c2ccccc2)C1C=Cc1ccccc1` (centres unmarked) [Example 221C], for which the IC50 was determined as 3 nM and the inhibition constant Ki is 1.84 nM.

Consider `O=C(NC1(c2ccccc2)CCCCC1)C(CCC(=O)N1CCN(C2CCCCC2)CC1)N1C(=O)C(N2C(=O)OCC2c2ccccc2)C1C=Cc1ccccc1` (centres unmarked) [Example 221G], for which the IC50 was 1.5 nM and the inhibition constant Ki amounted to 0.93 nM.

With `CCCCN1CCN(C(=O)CCC(C(=O)NCc2cccc(C(F)(F)F)c2)N2C(=O)C(N3C(=O)OCC3c3ccccc3)C2C(Cl)=Cc2ccccc2)CC1` (centres unmarked) [Example 229], the concentration for half-maximal inhibition (IC50) was determined as 1.53 nM and the Ki came to 0.94 nM.
